Values of other authors, collected in PubChem BioAssay AID1259409 (Chemical Carcinogenesis Research Information System (CCRIS), 2018).

Test system: rodent chemically induced tumor inhibition, incidence and multiplicity
Test: CCRIS tumor inhibitor studies
Conditions: Carcinogen: N-METHYL-N-NITROSOUREA, 684-93-5, Route [Inhibitor]: ORAL, Promoter: NONE USED

SMILES: CC1=C(/C=C/C(C)=C/C=C/C(C)=C\C(=O)O)C(C)(C)CCC1
- tumour outcome (control, treated, inhibition, significance) (Dose [Inhibitor]: 25 MG/KG DAILY IN DIET STARTING 1 D AFTER LAST CARCINOGEN INJECTION AND CONTINUING FOR 256 D (STUDY DURATION: 285 D), Species: RAT, Strain/Sex: WISTAR-LEWIS/FEMALE, Target Tissue: Type of Lesion: URINARY BLADDER: PAPILLARY UROTHELIAL TUMOR, Dose [Carcinogen]: 1.5 MG IN 0.15 ML SALINE INJECTED INTO A SURGICALLY EXPOSED BLADDER 1/2 WK FOR A TOTAL OF 3 INJECTIONS): 8/30 (27%), 2/23 (9%), 67%, p<0.05
- tumour outcome (control, treated, inhibition, significance) (Dose [Inhibitor]: 120 MG/KG DIET DAILY STARTING 1 WK AFTER LAST CARCINOGEN TREATMENT AND CONTINUING FOR 6 MO (STUDY DURATION: 9 MO), Species: HAMSTER, Strain/Sex: SYRIAN/MALE, Target Tissue: Type of Lesion: TRACHEA: BENIGN EPITHELIAL NEOPLASM, Dose [Carcinogen]: 0.5% IN 1 ML PHOSPHATE-BUFFERED SALINE 1/WK FOR 12 WK): 6/63 (10%), 13/61 (21%), -110%, not significant
- tumour outcome (control, treated, inhibition, significance) (Dose [Inhibitor]: 120 MG/KG DIET DAILY STARTING 1 WK AFTER LAST CARCINOGEN TREATMENT AND CONTINUING FOR 6 MO (STUDY DURATION: 9 MO), Species: HAMSTER, Strain/Sex: SYRIAN/MALE, Target Tissue: Type of Lesion: TRACHEA: CARCINOMA, Dose [Carcinogen]: 0.5% IN 1 ML PHOSPHATE-BUFFERED SALINE 1/WK FOR 12 WK): 4/63 (6%), 12/61 (20%), -233%, p<0.05
- tumour outcome (control, treated, inhibition, significance) (Dose [Inhibitor]: 120 MG/KG DIET DAILY STARTING 1 WK AFTER LAST CARCINOGEN TREATMENT AND CONTINUING FOR 6 MO (STUDY DURATION: 9 MO), Species: HAMSTER, Strain/Sex: SYRIAN/MALE, Target Tissue: Type of Lesion: TRACHEA: EPITHELIAL NEOPLASM, Dose [Carcinogen]: 0.5% IN 1 ML PHOSPHATE-BUFFERED SALINE 1/WK FOR 12 WK): 10/63 (16%), 22/61 (36%), -125%, p<0.05
- tumour outcome (control, treated, inhibition, significance) (Dose [Inhibitor]: 120 MG/KG IN DIET DAILY FOR 6 MO STARTING 1 WK AFTER FINAL CARCINOGEN DOSE (STUDY DURATION: 9 MO), Species: HAMSTER, Strain/Sex: SYRIAN/MALE, Target Tissue: Type of Lesion: TRACHEA: BENIGN EPITHELIAL NEOPLASM, Dose [Carcinogen]: 0.5% SOLUTION FOR 5 SECOND EXPOSURE 1/WK FOR 12 WK): 6/63 (10%), 13/61 (21%), -110%, not significant
- tumour outcome (control, treated, inhibition, significance) (Dose [Inhibitor]: 120 MG/KG IN DIET DAILY FOR 6 MO STARTING 1 WK AFTER FINAL CARCINOGEN DOSE (STUDY DURATION: 9 MO), Species: HAMSTER, Strain/Sex: SYRIAN/MALE, Target Tissue: Type of Lesion: TRACHEA: EPITHELIAL NEOPLASM, Dose [Carcinogen]: 0.5% SOLUTION FOR 5 SECOND EXPOSURE 1/WK FOR 12 WK): 10/63 (16%), 22/61 (36%), -125%, p<0.05
- tumour outcome (control, treated, inhibition, significance) (Dose [Inhibitor]: 120 OR 300 MG/KG DIET DAILY STARTING ON THE DAY OF THE FIRST INSTILLATION OF CARCINOGEN OR 1 D AFTER THE LAST CARCINOGEN, Species: RAT, Strain/Sex: WISTAR-LEWIS/FEMALE, Target Tissue: Type of Lesion: URINARY BLADDER: CARCINOMA, Dose [Carcinogen]: 1.5 MG IN 0.15 ML OF 0.9% NACL SOLUTION INSTILLED DIRECTLY INTO THE URINARY BLADDER 1/2 WK FOR A TOTAL OF 3 DOSES): 10/23 (43%), 27/87 (31%), 28%, p 0.11
- tumour outcome (control, treated, inhibition, significance) (Dose [Inhibitor]: 120 OR 300 MG/KG DIET DAILY STARTING ON THE DAY OF THE FIRST INSTILLATION OF CARCINOGEN OR 1 D AFTER THE LAST CARCINOGEN, Species: RAT, Strain/Sex: WISTAR-LEWIS/FEMALE, Target Tissue: Type of Lesion: URINARY BLADDER: NEOPLASM, Dose [Carcinogen]: 1.5 MG IN 0.15 ML OF 0.9% NACL SOLUTION INSTILLED DIRECTLY INTO THE URINARY BLADDER 1/2 WK FOR A TOTAL OF 3 DOSES): 13/23 (57%), 35/87 (40%), 30%, p 0.08
- tumour outcome (control, treated, inhibition, significance) (Dose [Inhibitor]: 120 OR 300 MG/KG DIET DAILY STARTING ON THE DAY OF THE FIRST INSTILLATION OF CARCINOGEN OR 1 D AFTER THE LAST CARCINOGEN, Species: RAT, Strain/Sex: WISTAR-LEWIS/FEMALE, Target Tissue: Type of Lesion: URINARY BLADDER: SQUAMOUS CELL CARCINOMA, Dose [Carcinogen]: 1.5 MG IN 0.15 ML OF 0.9% NACL SOLUTION INSTILLED DIRECTLY INTO THE URINARY BLADDER 1/2 WK FOR A TOTAL OF 3 DOSES): 4/23 (17%), 8/87 (9%), 47%, p 0.11
- tumour outcome (control, treated, inhibition, significance) (Dose [Inhibitor]: 120 OR 300 MG/KG DIET DAILY STARTING ON THE DAY OF THE FIRST INSTILLATION OF CARCINOGEN OR 1 D AFTER THE LAST CARCINOGEN, Species: RAT, Strain/Sex: WISTAR-LEWIS/FEMALE, Target Tissue: Type of Lesion: URINARY BLADDER: TRANSITIONAL CELL CARCINOMA, Dose [Carcinogen]: 1.5 MG IN 0.15 ML OF 0.9% NACL SOLUTION INSTILLED DIRECTLY INTO THE URINARY BLADDER 1/2 WK FOR A TOTAL OF 3 DOSES): 7/23 (30%), 23/87 (26%), 13%, p 0.23
